Laboratory results published in ChEMBL document CHEMBL5505979, “Novel aminothiazoximone-corbelled ethoxycarbonylpyrimidones with antibiofilm activity to conquer Gram-negative bacteria through potential multitargeting effects” (Eur J Med Chem, 2024).
≈ marks a conversion by molar mass, not a printed value.

Legend:
Format in all cases: functional
Pseudomonas aeruginosa [1] = test: Anti-bacterial activity against Pseudomonas aeruginosa ATCC 9027 assessed as inhibition of bacterial growth
Candida tropicalis = test: Anti-fungal activity against Candida tropicalis assessed as inhibition of fungal growth; conditions: Candida tropicalis; read-out: MIC
Pseudomonas aeruginosa [2] = test: Anti-bacterial activity against Pseudomonas aeruginosa ST235 assessed as inhibition of bacterial growth; conditions: Pseudomonas aeruginosa, ST235; read-out: MIC
Escherichia coli [3] = test: Anti-bacterial activity against Escherichia coli JM109 assessed as inhibition of bacterial growth
Staphylococcus aureus [4] = test: Anti-bacterial activity against Staphylococcus aureus ATCC 1708 assessed as inhibition of bacterial growth; conditions: Staphylococcus aureus, ATCC 1708; read-out: MIC
Candida albicans [5] = test: Anti-fungal activity against Candida albicans 90023 assessed as inhibition of fungal growth
Klebsiella pneumoniae = test: Anti-bacterial activity against Klebsiella pneumoniae KPN325 assessed as inhibition of bacterial growth; conditions: Klebsiella pneumoniae, KPN325; read-out: MIC
Staphylococcus aureus [6] = test: Anti-bacterial activity against methicillin-resistant Staphylococcus aureus N315 assessed as inhibition of bacterial growth; conditions: Staphylococcus aureus, N315; read-out: MIC
Staphylococcus aureus [7] = test: Anti-bacterial activity against Staphylococcus aureus ATCC 25923 assessed as inhibition of bacterial growth; conditions: Staphylococcus aureus, ATCC 25923; read-out: MIC
Staphylococcus aureus [8] = test: Anti-bacterial activity against Staphylococcus aureus CMCC (B) 26001 assessed as inhibition of bacterial growth
Staphylococcus aureus [9] = test: Anti-bacterial activity against Staphylococcus aureus ATCC 6538 assessed as inhibition of bacterial growth
Candida albicans [10] = test: Anti-fungal activity against Candida albicans assessed as inhibition of fungal growth; conditions: Candida albicans; read-out: MIC
Enterococcus faecalis = test: Anti-bacterial activity against Enterococcus faecalis V583 assessed as inhibition of bacterial growth
Acinetobacter baumannii = test: Anti-bacterial activity against Acinetobacter baumannii R674 assessed as inhibition of bacterial growth
Pseudomonas aeruginosa [11] = test: Anti-bacterial activity against Pseudomonas aeruginosa ATCC 15442 assessed as inhibition of bacterial growth; conditions: Pseudomonas aeruginosa, ATCC 15442; read-out: MIC
Staphylococcus aureus [12] = test: Anti-bacterial activity against Staphylococcus aureus ATCC 12600 assessed as inhibition of bacterial growth; conditions: Staphylococcus aureus, ATCC 12600; read-out: MIC
Pseudomonas aeruginosa [13] = test: Anti-bacterial activity against Pseudomonas aeruginosa CMCC (B) 10104 assessed as inhibition of bacterial growth; conditions: Pseudomonas aeruginosa, CMCC (B) 10104; read-out: MIC
Staphylococcus aureus [14] = test: Anti-bacterial activity against methicillin-resistant Staphylococcus aureus ATCC 43300 assessed as inhibition of bacterial growth; conditions: Staphylococcus aureus, ATCC 43300; read-out: MIC
Staphylococcus aureus [15] = test: Anti-bacterial activity against Staphylococcus aureus CMCC (B) 26003 assessed as inhibition of bacterial growth
Candida parapsilosis = test: Anti-fungal activity against Candida parapsilosis assessed as inhibition of fungal growth; conditions: Lodderomyces parapsilosis; read-out: MIC
Pseudomonas aeruginosa [16] = test: Anti-bacterial activity against Pseudomonas aeruginosa ATCC 27853 assessed as inhibition of bacterial growth; conditions: Pseudomonas aeruginosa, ATCC 27853; read-out: MIC
Escherichia coli [17] = test: Anti-bacterial activity against Escherichia coli ATCC 25922 assessed as inhibition of bacterial growth
Staphylococcus aureus [18] = test: Anti-bacterial activity against Staphylococcus aureus ATCC 29213 assessed as inhibition of bacterial growth; conditions: Staphylococcus aureus, ATCC 29213; read-out: MIC

## CCOC(=O)C1=C(CN2CCN(C(=O)/C(=N/OC)c3csc(N)n3)CC2)NC(=O)NC1c1ccc(O)c(OC)c1 (stereo not given)
Pseudomonas aeruginosa [1]
  MIC: 95 µM (≈ 54.5 µg/mL)
Candida tropicalis
  MIC: 444 µM (≈ 255 µg/mL)
Pseudomonas aeruginosa [2]
  MIC: 48 µM (≈ 27.5 µg/mL)
Escherichia coli [3]
  MIC: 95 µM (≈ 54.5 µg/mL)
Staphylococcus aureus [4]
  MIC: 112 µM (≈ 64.2 µg/mL)
Candida albicans [5]
  MIC: 444 µM (≈ 255 µg/mL)
Klebsiella pneumoniae
  MIC: 48 µM (≈ 27.5 µg/mL)
Staphylococcus aureus [6]
  MIC: 112 µM (≈ 64.2 µg/mL)
Staphylococcus aureus [7]
  MIC: 56 µM (≈ 32.1 µg/mL)
Staphylococcus aureus [8]
  MIC: 56 µM (≈ 32.1 µg/mL)
Staphylococcus aureus [9]
  MIC: 112 µM (≈ 64.2 µg/mL)
Candida albicans [10]
  MIC: 444 µM (≈ 255 µg/mL)
Enterococcus faecalis
  MIC: 14 µM (≈ 8.03 µg/mL)
Acinetobacter baumannii
  MIC: 48 µM (≈ 27.5 µg/mL)
Pseudomonas aeruginosa [11]
  MIC: 48 µM (≈ 27.5 µg/mL)
Staphylococcus aureus [12]
  MIC: 112 µM (≈ 64.2 µg/mL)
Pseudomonas aeruginosa [13]
  MIC: 95 µM (≈ 54.5 µg/mL)
Staphylococcus aureus [14]
  MIC: 28 µM (≈ 16.1 µg/mL)
Staphylococcus aureus [15]
  MIC: 112 µM (≈ 64.2 µg/mL)
Candida parapsilosis
  MIC: 444 µM (≈ 255 µg/mL)
Pseudomonas aeruginosa [16]
  MIC: 48 µM (≈ 27.5 µg/mL)
Escherichia coli [17]
  MIC: 48 µM (≈ 27.5 µg/mL)
Staphylococcus aureus [18]
  MIC: 56 µM (≈ 32.1 µg/mL)

## CCOC(=O)C1=C(CN2CCN(C(=O)/C(=N/OC)c3csc(N)n3)CC2)NC(=O)NC1c1cccc(O)c1 (stereo not given)
Pseudomonas aeruginosa [1]
  MIC: 59 µM (≈ 32.1 µg/mL)
Candida tropicalis
  MIC: 430 µM (≈ 234 µg/mL)
Pseudomonas aeruginosa [2]
  MIC: 59 µM (≈ 32.1 µg/mL)
Escherichia coli [3]
  MIC: 59 µM (≈ 32.1 µg/mL)
Staphylococcus aureus [4]
  MIC: 118 µM (≈ 64.1 µg/mL)
Candida albicans [5]
  MIC: 7 µM (≈ 3.81 µg/mL)
Klebsiella pneumoniae
  MIC: 59 µM (≈ 32.1 µg/mL)
Staphylococcus aureus [6]
  MIC: 118 µM (≈ 64.1 µg/mL)
Staphylococcus aureus [7]
  MIC: 118 µM (≈ 64.1 µg/mL)
Staphylococcus aureus [8]
  MIC: 59 µM (≈ 32.1 µg/mL)
Staphylococcus aureus [9]
  MIC: 59 µM (≈ 32.1 µg/mL)
Candida albicans [10]
  MIC: 430 µM (≈ 234 µg/mL)
Enterococcus faecalis
  MIC: 15 µM (≈ 8.15 µg/mL)
Acinetobacter baumannii
  MIC: 15 µM (≈ 8.15 µg/mL)
Pseudomonas aeruginosa [11]
  MIC: 59 µM (≈ 32.1 µg/mL)
Staphylococcus aureus [12]
  MIC: 15 µM (≈ 8.15 µg/mL)
Pseudomonas aeruginosa [13]
  MIC: 117 µM (≈ 63.6 µg/mL)
Staphylococcus aureus [14]
  MIC: 59 µM (≈ 32.1 µg/mL)
Staphylococcus aureus [15]
  MIC: 236 µM (≈ 128 µg/mL)
Candida parapsilosis
  MIC: 430 µM (≈ 234 µg/mL)
Pseudomonas aeruginosa [16]
  MIC: 59 µM (≈ 32.1 µg/mL)
Escherichia coli [17]
  MIC: 59 µM (≈ 32.1 µg/mL)
Staphylococcus aureus [18]
  MIC: 59 µM (≈ 32.1 µg/mL)

## CCOC(=O)C1=C(CN2CCN(C(=O)/C(=N/OC)c3csc(N)n3)CC2)NC(=O)NC1c1cccs1 (stereo not given)
Pseudomonas aeruginosa [1]
  MIC: 480 µM (≈ 256 µg/mL)
Candida tropicalis
  MIC: 480 µM (≈ 256 µg/mL)
Pseudomonas aeruginosa [2]
  MIC: 480 µM (≈ 256 µg/mL)
Escherichia coli [3]
  MIC: 240 µM (≈ 128 µg/mL)
Staphylococcus aureus [4]
  MIC: 240 µM (≈ 128 µg/mL)
Candida albicans [5]
  MIC: 480 µM (≈ 256 µg/mL)
Klebsiella pneumoniae
  MIC: 240 µM (≈ 128 µg/mL)
Staphylococcus aureus [6]
  MIC: 30 µM (≈ 16 µg/mL)
Staphylococcus aureus [7]
  MIC: 240 µM (≈ 128 µg/mL)
Staphylococcus aureus [8]
  MIC: 240 µM (≈ 128 µg/mL)
Staphylococcus aureus [9]
  MIC: 60 µM (≈ 32 µg/mL)
Candida albicans [10]
  MIC: 480 µM (≈ 256 µg/mL)
Enterococcus faecalis
  MIC: 120 µM (≈ 64 µg/mL)
Acinetobacter baumannii
  MIC: 480 µM (≈ 256 µg/mL)
Pseudomonas aeruginosa [11]
  MIC: 60 µM (≈ 32 µg/mL)
Staphylococcus aureus [12]
  MIC: 240 µM (≈ 128 µg/mL)
Pseudomonas aeruginosa [13]
  MIC: 240 µM (≈ 128 µg/mL)
Staphylococcus aureus [14]
  MIC: 30 µM (≈ 16 µg/mL)
Staphylococcus aureus [15]
  MIC: 240 µM (≈ 128 µg/mL)
Candida parapsilosis
  MIC: 480 µM (≈ 256 µg/mL)
Pseudomonas aeruginosa [16]
  MIC: 240 µM (≈ 128 µg/mL)
Escherichia coli [17]
  MIC: 240 µM (≈ 128 µg/mL)
Staphylococcus aureus [18]
  MIC: 240 µM (≈ 128 µg/mL)

## CCCCc1nc(Cl)c(C2NC(=O)NC(CN3CCN(CC(=O)c4ccccc4)CC3)=C2C(=O)OCC)[nH]1 (stereo not given)
Pseudomonas aeruginosa [1]
  MIC: 118 µM (≈ 64.1 µg/mL)
Candida tropicalis
  MIC: 472 µM (≈ 256 µg/mL)
Pseudomonas aeruginosa [2]
  MIC: 118 µM (≈ 64.1 µg/mL)
Escherichia coli [3]
  MIC: 118 µM (≈ 64.1 µg/mL)
Staphylococcus aureus [4]
  MIC: 472 µM (≈ 256 µg/mL)
Candida albicans [5]
  MIC: 15 µM (≈ 8.15 µg/mL)
Klebsiella pneumoniae
  MIC: 236 µM (≈ 128 µg/mL)
Staphylococcus aureus [6]
  MIC: 236 µM (≈ 128 µg/mL)
Staphylococcus aureus [7]
  MIC: 59 µM (≈ 32 µg/mL)
Staphylococcus aureus [8]
  MIC: 59 µM (≈ 32 µg/mL)
Staphylococcus aureus [9]
  MIC: 236 µM (≈ 128 µg/mL)
Candida albicans [10]
  MIC: 472 µM (≈ 256 µg/mL)
Enterococcus faecalis
  MIC: 236 µM (≈ 128 µg/mL)
Acinetobacter baumannii
  MIC: 118 µM (≈ 64.1 µg/mL)
Pseudomonas aeruginosa [11]
  MIC: 118 µM (≈ 64.1 µg/mL)
Staphylococcus aureus [12]
  MIC: 236 µM (≈ 128 µg/mL)
Pseudomonas aeruginosa [13]
  MIC: 118 µM (≈ 64.1 µg/mL)
Staphylococcus aureus [14]
  MIC: 59 µM (≈ 32 µg/mL)
Staphylococcus aureus [15]
  MIC: 472 µM (≈ 256 µg/mL)
Candida parapsilosis
  MIC: 472 µM (≈ 256 µg/mL)
Pseudomonas aeruginosa [16]
  MIC: 118 µM (≈ 64.1 µg/mL)
Escherichia coli [17]
  MIC: 59 µM (≈ 32 µg/mL)
Staphylococcus aureus [18]
  MIC: 59 µM (≈ 32 µg/mL)

## CCOC(=O)C1=C(CN2CCN(C(=O)/C(=N/OC)c3csc(N)n3)CC2)NC(=O)NC1c1ccc(O)c(Br)c1 (stereo not given)
Pseudomonas aeruginosa [1]
  MIC: 103 µM (≈ 64.1 µg/mL)
Candida tropicalis
  MIC: 415 µM (≈ 258 µg/mL)
Pseudomonas aeruginosa [2]
  MIC: 52 µM (≈ 32.4 µg/mL)
Escherichia coli [3]
  MIC: 52 µM (≈ 32.4 µg/mL)
Staphylococcus aureus [4]
  MIC: 103 µM (≈ 64.1 µg/mL)
Candida albicans [5]
  MIC: 104 µM (≈ 64.7 µg/mL)
Klebsiella pneumoniae
  MIC: 52 µM (≈ 32.4 µg/mL)
Staphylococcus aureus [6]
  MIC: 103 µM (≈ 64.1 µg/mL)
Staphylococcus aureus [7]
  MIC: 26 µM (≈ 16.2 µg/mL)
Staphylococcus aureus [8]
  MIC: 52 µM (≈ 32.4 µg/mL)
Staphylococcus aureus [9]
  MIC: 52 µM (≈ 32.4 µg/mL)
Candida albicans [10]
  MIC: 415 µM (≈ 258 µg/mL)
Enterococcus faecalis
  MIC: 13 µM (≈ 8.09 µg/mL)
Acinetobacter baumannii
  MIC: 26 µM (≈ 16.2 µg/mL)
Pseudomonas aeruginosa [11]
  MIC: 52 µM (≈ 32.4 µg/mL)
Staphylococcus aureus [12]
  MIC: 52 µM (≈ 32.4 µg/mL)
Pseudomonas aeruginosa [13]
  MIC: 103 µM (≈ 64.1 µg/mL)
Staphylococcus aureus [14]
  MIC: 26 µM (≈ 16.2 µg/mL)
Staphylococcus aureus [15]
  MIC: 103 µM (≈ 64.1 µg/mL)
Candida parapsilosis
  MIC: 415 µM (≈ 258 µg/mL)
Pseudomonas aeruginosa [16]
  MIC: 52 µM (≈ 32.4 µg/mL)
Escherichia coli [17]
  MIC: 52 µM (≈ 32.4 µg/mL)
Staphylococcus aureus [18]
  MIC: 52 µM (≈ 32.4 µg/mL)
